According to ChEMBL document CHEMBL5444388, “Affinity Phenotypic Cellular Literature for EUbOPEN Chemogenomic Library” (2024):

What was measured:
Format in all cases: functional, cell-based
Parameters in all cases: recommended concentration 100 nM
[1] = molecular target: Centromere-associated protein E (Homo sapiens) (UniProt Q02224); experiment: Affinity Phenotypic Cellular interaction: (Cell-growth inhibition assays (growth inhibitory effect colon cancer cell line HEC-1-A)) EUB0000734a CENPE; settings: Affinity Phenotypic Cellular Source Knowledge https://pubmed.ncbi.nlm.nih.gov/20167803/
[2] = molecular target: Centromere-associated protein E (Homo sapiens) (UniProt Q02224); experiment: Affinity Phenotypic Cellular interaction: (Cell-growth inhibition assays (growth inhibitory effect colon cancer cell line SN12C)) EUB0000734a CENPE; settings: Affinity Phenotypic Cellular Source Knowledge https://pubmed.ncbi.nlm.nih.gov/20167803/
[3] = molecular target: Centromere-associated protein E (Homo sapiens) (UniProt Q02224); experiment: Affinity Phenotypic Cellular interaction: (Cell-growth inhibition assays (growth inhibitory effect colon cancer cell line MIA PaCa-2)) EUB0000734a CENPE; settings: Affinity Phenotypic Cellular Source Knowledge https://pubmed.ncbi.nlm.nih.gov/20167803/
[4] = molecular target: Centromere-associated protein E (Homo sapiens) (UniProt Q02224); experiment: Affinity Phenotypic Cellular interaction: (Cell-growth inhibition assays (growth inhibitory effect colon cancer cell line HT-29)) EUB0000734a CENPE; settings: Affinity Phenotypic Cellular Source Knowledge https://pubmed.ncbi.nlm.nih.gov/20167803/
[5] = molecular target: Centromere-associated protein E (Homo sapiens) (UniProt Q02224); experiment: Affinity Phenotypic Cellular interaction: (Cell-growth inhibition assays (growth inhibitory effect colon cancer cell line HCT-15)) EUB0000734a CENPE; settings: Affinity Phenotypic Cellular Source Knowledge https://pubmed.ncbi.nlm.nih.gov/20167803/
[6] = molecular target: Centromere-associated protein E (Homo sapiens) (UniProt Q02224); experiment: Affinity Phenotypic Cellular interaction: (Cell-growth inhibition assays (growth inhibitory effect colon cancer cell line 786-O)) EUB0000734a CENPE; settings: 786-0, Affinity Phenotypic Cellular Source Knowledge https://pubmed.ncbi.nlm.nih.gov/20167803/
[7] = molecular target: Centromere-associated protein E (Homo sapiens) (UniProt Q02224); experiment: Affinity Phenotypic Cellular interaction: (Cell-growth inhibition assays (growth inhibitory effect sarcoma cancer cell line TE381.T)) EUB0000734a CENPE; settings: TE 381.T, Affinity Phenotypic Cellular Source Knowledge https://pubmed.ncbi.nlm.nih.gov/20167803/
[8] = molecular target: Centromere-associated protein E (Homo sapiens) (UniProt Q02224); experiment: Affinity Phenotypic Cellular interaction: (Cell-growth inhibition assays (growth inhibitory effect colon cancer cell line HT-3)) EUB0000734a CENPE; settings: Affinity Phenotypic Cellular Source Knowledge https://pubmed.ncbi.nlm.nih.gov/20167803/
[9] = molecular target: Centromere-associated protein E (Homo sapiens) (UniProt Q02224); experiment: Affinity Phenotypic Cellular interaction: (Cell-growth inhibition assays (growth inhibitory effect colon cancer cell line SNU-475)) EUB0000734a CENPE; settings: Affinity Phenotypic Cellular Source Knowledge https://pubmed.ncbi.nlm.nih.gov/20167803/
[10] = molecular target: Centromere-associated protein E (Homo sapiens) (UniProt Q02224); experiment: Affinity Phenotypic Cellular interaction: (Cell-growth inhibition assays (growth inhibitory effect colon cancer cell line SW-872)) EUB0000734a CENPE; settings: SW872, Affinity Phenotypic Cellular Source Knowledge https://pubmed.ncbi.nlm.nih.gov/20167803/
[11] = molecular target: Centromere-associated protein E (Homo sapiens) (UniProt Q02224); experiment: Affinity Phenotypic Cellular interaction: (Cell-growth inhibition assays (growth inhibitory effect colon cancer cell line HOS)) EUB0000734a CENPE; settings: Affinity Phenotypic Cellular Source Knowledge https://pubmed.ncbi.nlm.nih.gov/20167803/
[12] = molecular target: Centromere-associated protein E (Homo sapiens) (UniProt Q02224); experiment: Affinity Phenotypic Cellular interaction: (Cell-growth inhibition assays (growth inhibitory effect colon cancer cell line A549)) EUB0000734a CENPE; settings: Affinity Phenotypic Cellular Source Knowledge https://pubmed.ncbi.nlm.nih.gov/20167803/
[13] = molecular target: Centromere-associated protein E (Homo sapiens) (UniProt Q02224); experiment: Affinity Phenotypic Cellular interaction: (Cell-growth inhibition assays (growth inhibitory effect colon cancer cell line MV-4-11)) EUB0000734a CENPE; settings: MV4-11, Affinity Phenotypic Cellular Source Knowledge https://pubmed.ncbi.nlm.nih.gov/20167803/
[14] = molecular target: Centromere-associated protein E (Homo sapiens) (UniProt Q02224); experiment: Affinity Phenotypic Cellular interaction: (Cell-growth inhibition assays (growth inhibitory effect colon cancer cell line C3A)) EUB0000734a CENPE; settings: Affinity Phenotypic Cellular Source Knowledge https://pubmed.ncbi.nlm.nih.gov/20167803/
[15] = molecular target: Centromere-associated protein E (Homo sapiens) (UniProt Q02224); experiment: Affinity Phenotypic Cellular interaction: (Cell-growth inhibition assays (growth inhibitory effect colon cancer cell line HN5)) EUB0000734a CENPE; settings: Affinity Phenotypic Cellular Source Knowledge https://pubmed.ncbi.nlm.nih.gov/20167803/
[16] = molecular target: Centromere-associated protein E (Homo sapiens) (UniProt Q02224); experiment: Affinity Phenotypic Cellular interaction: (Cell-growth inhibition assays (growth inhibitory effect colon cancer cell line SW1463)) EUB0000734a CENPE; settings: Affinity Phenotypic Cellular Source Knowledge https://pubmed.ncbi.nlm.nih.gov/20167803/
[17] = molecular target: Centromere-associated protein E (Homo sapiens) (UniProt Q02224); experiment: Affinity Phenotypic Cellular interaction: (Cell-growth inhibition assays (growth inhibitory effect colon cancer cell line SK-MEL-3)) EUB0000734a CENPE; settings: SK-MEL3, Affinity Phenotypic Cellular Source Knowledge https://pubmed.ncbi.nlm.nih.gov/20167803/
[18] = molecular target: Centromere-associated protein E (Homo sapiens) (UniProt Q02224); experiment: Affinity Phenotypic Cellular interaction: (Cell-growth inhibition assays (growth inhibitory effect colon cancer cell line C-4I)) EUB0000734a CENPE; settings: Affinity Phenotypic Cellular Source Knowledge https://pubmed.ncbi.nlm.nih.gov/20167803/
[19] = molecular target: Centromere-associated protein E (Homo sapiens) (UniProt Q02224); experiment: Affinity Phenotypic Cellular interaction: (Cell-growth inhibition assays (growth inhibitory effect colon cancer cell line EFM-19)) EUB0000734a CENPE; settings: Affinity Phenotypic Cellular Source Knowledge https://pubmed.ncbi.nlm.nih.gov/20167803/
[20] = molecular target: Centromere-associated protein E (Homo sapiens) (UniProt Q02224); experiment: Affinity Phenotypic Cellular interaction: (Cell-growth inhibition assays (growth inhibitory effect colon cancer cell line SW756)) EUB0000734a CENPE; settings: Affinity Phenotypic Cellular Source Knowledge https://pubmed.ncbi.nlm.nih.gov/20167803/
[21] = molecular target: Centromere-associated protein E (Homo sapiens) (UniProt Q02224); experiment: Affinity Phenotypic Cellular interaction: (Cell-growth inhibition assays (growth inhibitory effect colon cancer cell line SW837)) EUB0000734a CENPE; settings: Affinity Phenotypic Cellular Source Knowledge https://pubmed.ncbi.nlm.nih.gov/20167803/
[22] = molecular target: Centromere-associated protein E (Homo sapiens) (UniProt Q02224); experiment: Affinity Phenotypic Cellular interaction: (Cell-growth inhibition assays (growth inhibitory effect colon cancer cell line HeLa)) EUB0000734a CENPE; settings: Affinity Phenotypic Cellular Source Knowledge https://pubmed.ncbi.nlm.nih.gov/20167803/
[23] = molecular target: Centromere-associated protein E (Homo sapiens) (UniProt Q02224); experiment: Affinity Phenotypic Cellular interaction: (Cell-growth inhibition assays (growth inhibitory effect lung cancer cell line MV522)) EUB0000734a CENPE; settings: MV-522, Affinity Phenotypic Cellular Source Knowledge https://pubmed.ncbi.nlm.nih.gov/20167803/
[24] = molecular target: Centromere-associated protein E (Homo sapiens) (UniProt Q02224); experiment: Affinity Phenotypic Cellular interaction: (Cell-growth inhibition assays (growth inhibitory effect colon cancer cell line DoTc2-4510)) EUB0000734a CENPE; settings: Affinity Phenotypic Cellular Source Knowledge https://pubmed.ncbi.nlm.nih.gov/20167803/
[25] = molecular target: Centromere-associated protein E (Homo sapiens) (UniProt Q02224); experiment: Affinity Phenotypic Cellular interaction: (Cell-growth inhibition assays (growth inhibitory effect colon cancer cell line SR)) EUB0000734a CENPE; settings: Affinity Phenotypic Cellular Source Knowledge https://pubmed.ncbi.nlm.nih.gov/20167803/
[26] = molecular target: Centromere-associated protein E (Homo sapiens) (UniProt Q02224); experiment: Affinity Phenotypic Cellular interaction: (Cell-growth inhibition assays (growth inhibitory effect colon cancer cell line SCC-25)) EUB0000734a CENPE; settings: Affinity Phenotypic Cellular Source Knowledge https://pubmed.ncbi.nlm.nih.gov/20167803/
[27] = molecular target: Centromere-associated protein E (Homo sapiens) (UniProt Q02224); experiment: Affinity Phenotypic Cellular interaction: (Cell-growth inhibition assays (growth inhibitory effect colon cancer cell line LNCaP)) EUB0000734a CENPE; settings: Affinity Phenotypic Cellular Source Knowledge https://pubmed.ncbi.nlm.nih.gov/20167803/
[28] = molecular target: Centromere-associated protein E (Homo sapiens) (UniProt Q02224); experiment: Affinity Phenotypic Cellular interaction: (Cell-growth inhibition assays (growth inhibitory effect colon cancer cell line MOLT-16)) EUB0000734a CENPE; settings: Affinity Phenotypic Cellular Source Knowledge https://pubmed.ncbi.nlm.nih.gov/20167803/
[29] = molecular target: Centromere-associated protein E (Homo sapiens) (UniProt Q02224); experiment: Affinity Phenotypic Cellular interaction: (Cell-growth inhibition assays (growth inhibitory effect colon cancer cell line G-401)) EUB0000734a CENPE; settings: Affinity Phenotypic Cellular Source Knowledge https://pubmed.ncbi.nlm.nih.gov/20167803/
[30] = molecular target: Centromere-associated protein E (Homo sapiens) (UniProt Q02224); experiment: Affinity Phenotypic Cellular interaction: (Cell-growth inhibition assays (growth inhibitory effect colon cancer cell line DLD-1)) EUB0000734a CENPE; settings: Affinity Phenotypic Cellular Source Knowledge https://pubmed.ncbi.nlm.nih.gov/20167803/
[31] = molecular target: Centromere-associated protein E (Homo sapiens) (UniProt Q02224); experiment: Affinity Phenotypic Cellular interaction: (Cell-growth inhibition assays (growth inhibitory effect colon cancer cell line CCF-STTG1)) EUB0000734a CENPE; settings: Affinity Phenotypic Cellular Source Knowledge https://pubmed.ncbi.nlm.nih.gov/20167803/
[32] = molecular target: Centromere-associated protein E (Homo sapiens) (UniProt Q02224); experiment: Affinity Phenotypic Cellular interaction: (Cell-growth inhibition assays (growth inhibitory effect colon cancer cell line MDA-MB-435)) EUB0000734a CENPE; settings: Affinity Phenotypic Cellular Source Knowledge https://pubmed.ncbi.nlm.nih.gov/20167803/
[33] = molecular target: Centromere-associated protein E (Homo sapiens) (UniProt Q02224); experiment: Affinity Phenotypic Cellular interaction: (Cell-growth inhibition assays (growth inhibitory effect colon cancer cell line T-47D)) EUB0000734a CENPE; settings: T47D, Affinity Phenotypic Cellular Source Knowledge https://pubmed.ncbi.nlm.nih.gov/20167803/
[34] = molecular target: Centromere-associated protein E (Homo sapiens) (UniProt Q02224); experiment: Affinity Phenotypic Cellular interaction: (Cell-growth inhibition assays (growth inhibitory effect colon cancer cell line CML-T1)) EUB0000734a CENPE; settings: Affinity Phenotypic Cellular Source Knowledge https://pubmed.ncbi.nlm.nih.gov/20167803/
[35] = molecular target: Centromere-associated protein E (Homo sapiens) (UniProt Q02224); experiment: Affinity Phenotypic Cellular interaction: (Cell-growth inhibition assays (growth inhibitory effect colon cancer cell line SW-954)) EUB0000734a CENPE; settings: Affinity Phenotypic Cellular Source Knowledge https://pubmed.ncbi.nlm.nih.gov/20167803/
[36] = molecular target: Centromere-associated protein E (Homo sapiens) (UniProt Q02224); experiment: Affinity Phenotypic Cellular interaction: (Cell-growth inhibition assays (growth inhibitory effect colon cancer cell line SNU-398)) EUB0000734a CENPE; settings: Affinity Phenotypic Cellular Source Knowledge https://pubmed.ncbi.nlm.nih.gov/20167803/
[37] = molecular target: Centromere-associated protein E (Homo sapiens) (UniProt Q02224); experiment: Affinity Phenotypic Cellular interaction: (Cell-growth inhibition assays (growth inhibitory effect breast cancer cell line MT-3)) EUB0000734a CENPE; settings: Affinity Phenotypic Cellular Source Knowledge https://pubmed.ncbi.nlm.nih.gov/20167803/

Chain of Centromere-associated protein E (Homo sapiens) (Q02224 whole entry): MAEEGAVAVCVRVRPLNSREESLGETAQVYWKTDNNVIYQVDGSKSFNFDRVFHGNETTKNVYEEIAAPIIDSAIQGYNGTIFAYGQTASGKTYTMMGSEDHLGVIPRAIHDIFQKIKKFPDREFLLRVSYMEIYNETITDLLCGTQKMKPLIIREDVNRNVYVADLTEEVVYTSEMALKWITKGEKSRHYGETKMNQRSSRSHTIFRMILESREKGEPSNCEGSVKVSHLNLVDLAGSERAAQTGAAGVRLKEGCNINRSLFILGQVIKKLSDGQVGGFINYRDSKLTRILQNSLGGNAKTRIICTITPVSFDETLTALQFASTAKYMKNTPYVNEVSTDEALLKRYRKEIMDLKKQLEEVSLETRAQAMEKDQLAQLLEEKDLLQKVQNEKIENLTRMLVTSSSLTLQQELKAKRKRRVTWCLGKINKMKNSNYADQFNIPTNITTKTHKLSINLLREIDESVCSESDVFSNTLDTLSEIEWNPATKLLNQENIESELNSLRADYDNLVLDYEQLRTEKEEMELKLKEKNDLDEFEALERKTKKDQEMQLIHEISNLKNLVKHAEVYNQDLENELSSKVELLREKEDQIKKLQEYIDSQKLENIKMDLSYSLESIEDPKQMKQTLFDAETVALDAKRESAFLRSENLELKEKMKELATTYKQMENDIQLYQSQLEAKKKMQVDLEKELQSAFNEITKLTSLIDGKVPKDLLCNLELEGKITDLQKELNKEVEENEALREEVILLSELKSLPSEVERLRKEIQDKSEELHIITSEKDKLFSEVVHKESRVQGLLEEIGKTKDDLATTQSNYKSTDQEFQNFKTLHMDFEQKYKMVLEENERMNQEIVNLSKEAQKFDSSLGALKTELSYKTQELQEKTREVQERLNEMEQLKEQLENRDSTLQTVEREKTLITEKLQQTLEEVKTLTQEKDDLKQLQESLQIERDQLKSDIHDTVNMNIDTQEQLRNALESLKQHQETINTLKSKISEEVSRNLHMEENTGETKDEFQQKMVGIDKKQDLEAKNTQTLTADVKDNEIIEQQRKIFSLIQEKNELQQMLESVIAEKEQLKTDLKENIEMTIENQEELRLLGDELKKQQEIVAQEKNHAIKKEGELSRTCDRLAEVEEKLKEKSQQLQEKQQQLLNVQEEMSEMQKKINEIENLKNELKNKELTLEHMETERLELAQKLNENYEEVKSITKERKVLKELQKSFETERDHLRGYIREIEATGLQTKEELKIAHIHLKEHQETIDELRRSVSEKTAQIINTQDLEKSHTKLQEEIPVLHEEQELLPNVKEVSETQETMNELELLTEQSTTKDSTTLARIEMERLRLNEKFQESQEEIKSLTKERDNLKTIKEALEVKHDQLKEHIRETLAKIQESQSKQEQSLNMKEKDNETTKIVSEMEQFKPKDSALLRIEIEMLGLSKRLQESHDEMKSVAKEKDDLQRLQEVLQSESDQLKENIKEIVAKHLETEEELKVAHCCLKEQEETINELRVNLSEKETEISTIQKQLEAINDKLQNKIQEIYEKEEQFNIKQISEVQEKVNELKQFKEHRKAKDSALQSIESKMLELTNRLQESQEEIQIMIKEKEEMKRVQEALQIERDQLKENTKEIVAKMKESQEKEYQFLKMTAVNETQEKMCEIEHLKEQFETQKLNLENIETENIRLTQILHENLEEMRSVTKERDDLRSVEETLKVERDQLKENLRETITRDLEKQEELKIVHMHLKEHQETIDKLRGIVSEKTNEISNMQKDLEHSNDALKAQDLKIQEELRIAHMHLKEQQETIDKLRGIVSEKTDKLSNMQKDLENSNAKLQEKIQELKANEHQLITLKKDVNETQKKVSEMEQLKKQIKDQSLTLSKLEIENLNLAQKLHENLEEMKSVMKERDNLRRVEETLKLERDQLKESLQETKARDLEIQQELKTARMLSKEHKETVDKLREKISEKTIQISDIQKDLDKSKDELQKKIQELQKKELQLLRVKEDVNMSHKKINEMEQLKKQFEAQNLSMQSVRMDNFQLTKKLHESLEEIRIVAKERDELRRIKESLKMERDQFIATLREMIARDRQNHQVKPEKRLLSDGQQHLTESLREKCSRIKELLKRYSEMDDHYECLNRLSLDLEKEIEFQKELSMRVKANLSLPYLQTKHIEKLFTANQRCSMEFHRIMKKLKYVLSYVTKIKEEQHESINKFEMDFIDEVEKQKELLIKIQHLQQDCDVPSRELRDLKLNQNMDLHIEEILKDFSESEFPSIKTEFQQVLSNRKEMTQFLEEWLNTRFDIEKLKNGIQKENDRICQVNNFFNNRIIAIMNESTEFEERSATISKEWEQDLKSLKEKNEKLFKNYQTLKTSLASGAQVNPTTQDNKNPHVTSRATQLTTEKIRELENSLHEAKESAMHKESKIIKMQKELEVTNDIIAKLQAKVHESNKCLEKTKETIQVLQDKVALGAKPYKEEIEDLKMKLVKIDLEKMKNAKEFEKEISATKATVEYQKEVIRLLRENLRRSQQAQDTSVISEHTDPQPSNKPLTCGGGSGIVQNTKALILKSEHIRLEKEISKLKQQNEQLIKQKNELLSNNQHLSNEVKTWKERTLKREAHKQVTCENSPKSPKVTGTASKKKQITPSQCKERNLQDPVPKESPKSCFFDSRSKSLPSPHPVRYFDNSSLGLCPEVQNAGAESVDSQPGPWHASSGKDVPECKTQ

CC(C)Oc1ccc(C(=O)N[C@H](CNC(=O)CN(C)C)Cc2ccc(-c3cn4cccc([C@H](C)O)c4n3)cc2)cc1Cl
GIC50 [1]: 50 nM
GIC50 [2]: 29 nM
GIC50 [3]: 23 nM
GIC50 [4]: 14 nM
GIC50 [5]: 151 nM
GIC50 [6]: 45 nM
GIC50 [7]: 27 nM
GIC50 [8]: 10 µM
GIC50 [9]: 26 nM
GIC50 [10]: 37 nM
GIC50 [11]: 27 nM
GIC50 [12]: 21 nM
GIC50 [13]: 29 nM
GIC50 [14]: 54 nM
GIC50 [15]: 118 nM
GIC50 [16]: 31 nM
GIC50 [17]: 30 nM
GIC50 [18]: 42 nM
GIC50 [19]: 28 nM
GIC50 [20]: 35 nM
GIC50 [21]: 33 nM
GIC50 [22]: 20 nM
GIC50 [23]: 48 nM
GIC50 [24]: 33 nM
GIC50 [25]: 29 nM
GIC50 [26]: 23 nM
GIC50 [27]: 76 nM
GIC50 [28]: 47 nM
GIC50 [29]: 26 nM
GIC50 [30]: 60 nM
GIC50 [31]: 24 nM
GIC50 [32]: 30 nM
GIC50 [33]: 29 nM
GIC50 [34]: 13 nM
GIC50 [35]: 22 nM
GIC50 [36]: 27 nM
GIC50 [37]: 41 nM
